From US20250163056A1, “NONMUSCLE MYOSIN II INHIBITORS” (The University of Florida Research Foundation, Inc., priority 2018, published 2025) come the findings set out here.

Data set [1] has as its target Rabbit skeletal myosin. In words: Skeletal muscle myosin II actin-activated ATPase assay. Type of data set: biochemical. Particulars: 20 nM skeletal muscle myosin II; read-out: SKMMII KI. Put shortly:
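Inhibitory constants come from a quadratic one-site fit of 16-point, triplicate dose-response data, highest compound concentration 50 uM. Rates are slopes of NADH fluorescence decline over 30 min, coupling ATP turnover of 20 nM rabbit skeletal myosin II with 10 μM actin and 1 mM ATP via PK/LDH, pH 7.0, 25 °C.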

Data set [2] has as its target Bovine cardiac myosin (Bos taurus (Bovine), UniProt Q9BE39). In words: Cardiac muscle myosin II actin-activated ATPase assay (NADH-coupled). Type of data set: biochemical. Also noted: key to Ratio CMMII:NMII Ki/EC50: NMII-sel: no Ki value for cardiac myosin II could be determined; the compounds had no detectable inhibitory properties versus the cardiac myosin II. Particulars: for Ki: 300 nM cardiac myosin, 10 μM actin, 25° C., read-out: CMMII KI; for Ratio CMMII:NMII Ki/EC50: cardiac myosin II Ki over nonmuscle myosin II EC50. Put shortly: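 Inhibitory constants came from a quadratic one-to-one binding fit of 16-point dose-responses (highest final 50 uM, triplicate). Rates were NADH-calibrated fluorescence slopes over 30 min at 25° C, with 300 nM bovine cardiac myosin, 10 μM actin and 1 mM ATP coupled through PK/LDH in pH 7.0 MOPS buffer.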

Data set [3] is described as follows: Photostability, percentage remaining undegraded under illumination or in the dark. Particulars: for Photostability 4 hours: percentage remaining undegraded after 4 hours illumination; for Photostability 24 hours: percentage remaining undegraded after 24 hours illumination; for Photostability Dark (24 h): percentage remaining undegraded in the dark.

Molecules are shown by their SMILES.

Bovine cardiac myosin, sequence (Q9BE39 whole entry): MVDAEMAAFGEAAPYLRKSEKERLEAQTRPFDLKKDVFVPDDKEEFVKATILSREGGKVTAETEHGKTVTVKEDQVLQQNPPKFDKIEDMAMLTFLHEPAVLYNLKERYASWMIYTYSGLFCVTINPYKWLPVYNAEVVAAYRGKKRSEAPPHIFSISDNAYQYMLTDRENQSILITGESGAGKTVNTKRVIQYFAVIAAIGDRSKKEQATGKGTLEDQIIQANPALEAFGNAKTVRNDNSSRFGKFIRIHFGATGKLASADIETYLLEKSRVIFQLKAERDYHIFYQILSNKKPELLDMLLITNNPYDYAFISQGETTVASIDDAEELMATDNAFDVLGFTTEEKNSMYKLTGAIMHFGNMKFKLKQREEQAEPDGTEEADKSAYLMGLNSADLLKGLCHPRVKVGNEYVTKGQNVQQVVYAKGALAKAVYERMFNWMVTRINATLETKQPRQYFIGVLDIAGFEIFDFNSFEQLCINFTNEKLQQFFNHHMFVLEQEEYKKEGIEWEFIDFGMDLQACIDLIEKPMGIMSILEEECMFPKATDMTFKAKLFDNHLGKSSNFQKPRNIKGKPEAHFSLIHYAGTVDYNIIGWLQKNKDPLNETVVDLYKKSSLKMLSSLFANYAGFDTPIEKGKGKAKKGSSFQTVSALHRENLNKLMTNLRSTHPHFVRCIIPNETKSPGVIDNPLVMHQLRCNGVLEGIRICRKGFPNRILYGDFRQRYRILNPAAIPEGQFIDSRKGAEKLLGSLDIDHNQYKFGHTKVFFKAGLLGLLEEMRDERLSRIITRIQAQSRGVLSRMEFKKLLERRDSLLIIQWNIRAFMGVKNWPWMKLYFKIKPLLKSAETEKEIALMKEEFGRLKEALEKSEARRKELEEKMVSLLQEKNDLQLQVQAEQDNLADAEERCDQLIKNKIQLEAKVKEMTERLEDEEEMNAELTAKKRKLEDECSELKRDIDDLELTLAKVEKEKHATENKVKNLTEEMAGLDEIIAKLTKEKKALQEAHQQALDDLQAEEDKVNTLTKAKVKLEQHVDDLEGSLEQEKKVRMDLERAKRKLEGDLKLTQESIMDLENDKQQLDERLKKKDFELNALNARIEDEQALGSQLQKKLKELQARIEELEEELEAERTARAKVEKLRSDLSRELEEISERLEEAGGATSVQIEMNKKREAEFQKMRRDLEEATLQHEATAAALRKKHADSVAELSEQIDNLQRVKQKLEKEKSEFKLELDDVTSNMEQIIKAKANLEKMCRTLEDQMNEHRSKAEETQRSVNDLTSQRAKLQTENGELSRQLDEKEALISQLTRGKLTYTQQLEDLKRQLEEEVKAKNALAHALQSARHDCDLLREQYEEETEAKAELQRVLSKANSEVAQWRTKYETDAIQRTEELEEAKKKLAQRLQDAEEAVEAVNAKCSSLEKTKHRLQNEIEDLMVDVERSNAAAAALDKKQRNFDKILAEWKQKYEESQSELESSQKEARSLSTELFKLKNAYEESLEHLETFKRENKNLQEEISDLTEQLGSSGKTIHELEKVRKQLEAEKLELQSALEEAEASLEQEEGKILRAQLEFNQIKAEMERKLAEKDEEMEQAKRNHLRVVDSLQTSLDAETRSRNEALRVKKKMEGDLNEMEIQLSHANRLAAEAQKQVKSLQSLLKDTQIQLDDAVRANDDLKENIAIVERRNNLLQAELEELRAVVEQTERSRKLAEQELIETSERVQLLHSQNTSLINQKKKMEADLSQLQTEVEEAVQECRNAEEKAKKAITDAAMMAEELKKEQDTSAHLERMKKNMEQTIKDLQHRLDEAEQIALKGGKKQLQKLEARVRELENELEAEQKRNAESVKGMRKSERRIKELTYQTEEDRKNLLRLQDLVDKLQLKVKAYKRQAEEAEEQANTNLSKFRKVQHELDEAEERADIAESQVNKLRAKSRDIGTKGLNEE
Bovine cardiac myosin, sequence (P85100 whole entry partner): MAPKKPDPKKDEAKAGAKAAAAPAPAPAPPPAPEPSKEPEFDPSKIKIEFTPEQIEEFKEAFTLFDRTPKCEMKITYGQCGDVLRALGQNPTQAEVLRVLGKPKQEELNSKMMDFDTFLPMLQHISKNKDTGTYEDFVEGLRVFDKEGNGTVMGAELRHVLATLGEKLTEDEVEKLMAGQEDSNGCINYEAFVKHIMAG
Bovine cardiac myosin, sequence (Q3SZE5 whole entry partner): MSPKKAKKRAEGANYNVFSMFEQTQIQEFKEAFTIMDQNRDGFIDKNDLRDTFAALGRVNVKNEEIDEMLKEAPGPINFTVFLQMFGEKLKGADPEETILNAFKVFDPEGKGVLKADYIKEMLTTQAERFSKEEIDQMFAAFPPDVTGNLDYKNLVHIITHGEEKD

Regarding `Cc1ccc2c(c1)C(=O)[C@]1(O)CCN(c3ccc4c(c3)OCCN4)C1=N2` [BPN-0027412], in data set [1], the Ki is 2.7 µM. In addition, in data set [2], the Ki stood at 21 µM and the “Ratio CMMII:NMII Ki/EC50” value stood at 3.6. In data set [3], the “Photostability 4 hours” value turned out to be 90.8%, the “Photostability 24 hours” value turned out to be 67.7% and the “Photostability Dark (24 h)” value was 95.5%.
As to `COc1cc(N2CC[C@@]3(O)C(=O)c4cc(Cl)ccc4N=C23)ccn1` [BPN-0026621], the inhibitory constant (Ki) in data set [1] amounted to 3.4 µM. In addition, in data set [2], the Ki was determined as 40 µM and the “Ratio CMMII:NMII Ki/EC50” value came out at 7.0. In addition, in data set [3], the “Photostability 4 hours” value is given as 93.3%, the “Photostability 24 hours” value was 61.4% and the “Photostability Dark (24 h)” value is 93.5%.
`Cc1cc2c(cc1C)C(=O)[C@]1(O)CCN(c3ccn4nccc4c3)C1=N2` [BPN-0027488]: the Ki in data set [1] stood at 0.9 µM. Moreover, the “Ratio CMMII:NMII Ki/EC50” value in data set [2] was “NMII-sel”. Further, in data set [3], the “Photostability 4 hours” value is on record as 49.4%, the “Photostability 24 hours” value is given as 20.0% and the “Photostability Dark (24 h)” value is reported as 96.4%.
On to `Cc1sc2c(c1C)C(=O)[C@]1(O)CCN(c3ccc4ncccc4c3)C1=N2` [BPN-0027376], for which the Ki in data set [1] turned out to be 6.7 µM. Moreover, in data set [2], the inhibition constant Ki was determined as 46 µM and the “Ratio CMMII:NMII Ki/EC50” value is recorded as 7.8. In data set [3], the “Photostability 4 hours” value is given as 90.4%, the “Photostability 24 hours” value is reported as 2.8% and the “Photostability Dark (24 h)” value is 97.0%.
Regarding `Cc1cc2c(s1)C(=O)[C@]1(O)CCN(c3ccc(C#N)c(Cl)c3)C1=N2` [BPN-0027162], the inhibition constant Ki in data set [1] is 4.5 µM. In addition, in data set [2], the Ki was 52 µM and the “Ratio CMMII:NMII Ki/EC50” value amounted to 6.6. Further, in data set [3], the “Photostability 4 hours” value came to 98.5%, the “Photostability 24 hours” value came out at 95.9% and the “Photostability Dark (24 h)” value is over 99%.
`CNc1cc(N2CC[C@@]3(O)C(=O)c4cc(C)c(C)cc4N=C23)ccn1` [BPN-0028650]: in data set [1], the Ki amounted to 12 µM. Further, in data set [2], the Ki was determined as 40 µM and the “Ratio CMMII:NMII Ki/EC50” value was 4.4. For the same molecule, in data set [3], the “Photostability 4 hours” value came to 88.7%, the “Photostability 24 hours” value turned out to be 62.6% and the “Photostability Dark (24 h)” value came to 93.4%.
`Cc1ccc2c(c1)C(=O)[C@]1(O)CCN(c3ccc4nc(N)ccc4c3)C1=N2` [BPN-0027494]: in data set [1], the Ki was found to be 4.7 µM. Also, the “Ratio CMMII:NMII Ki/EC50” value in data set [2] is given as “NMII-sel”. Further, in data set [3], the “Photostability 4 hours” value turned out to be 63.5%, the “Photostability 24 hours” value is given as under 1.0% and the “Photostability Dark (24 h)” value was found to be 88.4%.
`Cc1cc2c(cc1C)C(=O)[C@]1(O)CCN(c3ccc4c(c3)NCCC4)C1=N2` [BPN-0028925]: the Ki in data set [1] turned out to be 0.7 µM. For the same molecule, in data set [2], the inhibition constant (Ki) was 5.8 µM and the “Ratio CMMII:NMII Ki/EC50” value amounted to 7.3. For the same molecule, in data set [3], the “Photostability 4 hours” value was 85.9%, the “Photostability 24 hours” value is given as 24.7% and the “Photostability Dark (24 h)” value was 93.7%.
For the molecule `Cc1ccc2c(c1)C(=O)[C@]1(O)CCN(c3ccn4ncnc4c3)C1=N2` [BPN-0027441], the inhibition constant Ki in data set [1] was 12 µM. In data set [2], the Ki was 230 µM and the “Ratio CMMII:NMII Ki/EC50” value turned out to be 4.6. Further, in data set [3], the “Photostability 4 hours” value is on record as 97.2%, the “Photostability 24 hours” value stood at 71.4% and the “Photostability Dark (24 h)” value was 91.8%.
On to `Cc1ccc2c(c1)C(=O)[C@]1(O)CCN(c3ccc4sc(C)nc4c3)C1=N2` [BPN-0027411], for which, in data set [1], the Ki was 1.1 µM. Moreover, in data set [2], the Ki amounted to 51 µM and the “Ratio CMMII:NMII Ki/EC50” value stood at 8.1. Besides, in data set [3], the “Photostability 4 hours” value is 81.8%, the “Photostability 24 hours” value turned out to be 6.4% and the “Photostability Dark (24 h)” value amounted to 98.8%.
`Cc1cc2c(s1)N=C1N(c3ccc(C#N)c(Cl)c3)CC[C@@]1(O)C2=O` [BPN-0027257]: the Ki in data set [1] worked out at 4.2 µM. Besides, in data set [2], the Ki came out at 40 µM and the “Ratio CMMII:NMII Ki/EC50” value is 6.8. In data set [3], the “Photostability 4 hours” value was 97.0%, the “Photostability 24 hours” value came to 78.0% and the “Photostability Dark (24 h)” value came to 97.4%.

In general, Ki refers to the equilibrium dissociation constant of an inhibitor or competing ligand from its target.
